System: HBV
Assay: HBV replication inhibition assay (BDNA assay) in HepG2.2.15 cells
Assay type: cell-based
Details: HBV replication assay (BDNA assay), HepG2.2.15 cells; read-out: DNA EC50
In short: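 HepG2.2.15 cells with stably integrated HBV were treated with serially diluted compounds at 0.5% DMSO for 6 days, with medium and compound refreshed at day 3. Encapsidated HBV DNA from DNase-treated supernatant was quantified by branched DNA assay. EC50 came from % inhibition versus DMSO, fitted non-linearly.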

Row | SMILES | EC50
1 | C[C@@H]1Cc2nn3c(c2CN1C(=O)Nc1ccc(F)c(C(F)(F)F)c1)C(=O)N(C)OC(CO)C3 (stereo in doubt) [Compound 082_E2, (4R*,9R)—N-(4-fluoro-3-(trifluoromethyl)phenyl)-4-(hydroxymethyl)-2,9-dimethyl-1-oxo-1,4,5,8,9,11-hexahydropyrido[4′,3′:3,4]pyrazolo[5,1-d][1,2,5]oxadiazepine-10(2H)-carboxamide] | 1 to 100 nM
2 | C[C@@H]1Cc2nn3c(c2CN1C(=O)Nc1ccc(F)c(C#N)c1)C(=O)N(C)OC(CO)C3 (stereo in doubt) [Compound 084_E2, (4R*,9R)—N-(3-cyano-4-fluorophenyl)-4-(hydroxymethyl)-2,9-dimethyl-1-oxo-1,4,5,8,9,11-hexahydropyrido[4′,3′:3,4]pyrazolo [5,1-d][1,2,5]oxadiazepine-10(2H)-carboxamide] | 1 to 100 nM
3 | C[C@@H]1Cc2nn3c(c2CN1C(=O)Nc1ccc(F)c(C(F)(F)F)c1)C(=O)N(C)OC(CF)C3 (stereo in doubt) [Compound 085_E2, (4R*,9R)—N-(4-fluoro-3-(trifluoromethyl)phenyl)-4-(fluoromethyl)-2,9-dimethyl-1-oxo-1,4,5,8,9,11-hexahydropyrido[4′,3′:3,4]pyrazolo[5,1-d][1,2,5]oxadiazepine-10(2H)-carboxamide] | 1 to 100 nM
4 | Cc1cc(NC(=O)N2Cc3c(nn4c3C(=O)N(C)OC(CF)C4)C[C@H]2C)ccc1F (stereo in doubt) [Compound 086_E2, (4R*,9R)—N-(4-fluoro-3-methylphenyl)-4-(fluoromethyl)-2,9-dimethyl-1-oxo-1,4,5,8,9,11-hexahydropyrido[4′,3′:3,4]pyrazolo[5,1-d][1,2,5]oxadiazepine-10(2H)-carboxamide] | 1 to 100 nM

Same assay, conditions: Hepatitis B virus, HepG2.2.15, HBV replication assay (BDNA assay), HepG2.2.15 cells; read-out: DNA EC50

Row | SMILES | EC50
5 | CN1OC(CNCC(F)F)Cn2nc3c(c2C1=O)CN(C(=O)Nc1ccc(F)c(C(F)(F)F)c1F)CC3 (single isomer, unassigned) [Compound 191_E1, (S*)—N-(2,4-difluoro-3-(trifluoromethyl)phenyl)-4-(((2,2-difluoroethyl)amino)methyl)-2-methyl-1-oxo-1,4,5,8,9,11-hexahydropyrido[4′,3′:3,4]pyrazolo[5,1-d][1,2,5]oxadiazepine-10(2H)-carboxamide] | 1 to 100 nM
6 | CN1OC(CNCC(F)F)Cn2nc3c(c2C1=O)CN(C(=O)Nc1cc(Cl)c(F)cc1F)CC3 (single isomer, unassigned) [Compound 192_E1, (S*)—N-(5-chloro-2,4-difluorophenyl)-4-(((2,2-difluoroethyl)amino)methyl)-2-methyl-1-oxo-1,4,5,8,9,11-hexahydropyrido[4′,3′:3,4]pyrazolo[5,1-d][1,2,5]oxadiazepine-10(2H)-carboxamide] | 1 to 100 nM
7 | CN1OC(CNCC(F)F)Cn2nc3c(c2C1=O)CN(C(=O)Nc1cc(Br)c(F)cc1F)CC3 (single isomer, unassigned) [Compound 193_E1, (S*)—N-(5-bromo-2,4-difluorophenyl)-4-(((2,2-difluoroethyl)amino)methyl)-2-methyl-1-oxo-1,4,5,8,9,11-hexahydropyrido[4′,3′:3,4]pyrazolo[5,1-d][1,2,5]oxadiazepine-10(2H)-carboxamide] | 1 to 100 nM
8 | CN1OC(COCC(F)(F)F)Cn2nc3c(c2C1=O)CN(C(=O)Nc1ccc(F)c(C#N)c1)CC3 (single isomer, unassigned) [Compound 211, (S*)—N-(3-cyano-4-fluorophenyl)-2-methyl-1-oxo-4-((2,2,2-trifluoroethoxy)methyl)-1,4,5,8,9,11-hexahydropyrido[4′,3′:3,4]pyrazolo[5,1-d][1,2,5]oxadiazepine-10(2H)-carboxamide] | 1 to 100 nM
9 | CN1OC(COCC(F)F)Cn2nc3c(c2C1=O)CN(C(=O)Nc1ccc(F)c(C(F)(F)F)c1)CC3 (single isomer, unassigned) [Compound 212, (S*)-4-((2,2-difluoroethoxy)methyl)-N-(4-fluoro-3-(trifluoromethyl)phenyl)-2-methyl-1-oxo-1,4,5,8,9,11-hexahydropyrido[4′,3′:3,4]pyrazolo[5,1-d][1,2,5]oxadiazepine-10(2H)-carboxamide] | 1 to 100 nM
10 | CN1O[C@H](C[S@+](C)[O-])Cn2nc3c(c2C1=O)CN(C(=O)Nc1ccc(F)c(Cl)c1)CC3 (stereo in doubt) [Compound 049_E1, (S*)—N-(3-chloro-4-fluorophenyl)-2-methyl-4-(((S*)-methylsulfinyl)methyl)-1-oxo-1,4,5,8,9,11-hexahydropyrido[4′,3′:3,4]pyrazolo[5,1-d][1,2,5]oxadiazepine-10(2H)-carboxamide] | 100 to 500 nM
11 | CN1O[C@H](C[S@@+](C)[O-])Cn2nc3c(c2C1=O)CN(C(=O)Nc1ccc(F)c(Cl)c1)CC3 (stereo in doubt) [Compound 049_E2, (S*)—N-(3-chloro-4-fluorophenyl)-2-methyl-4-(((R*)-methylsulfinyl)methyl)-1-oxo-1,4,5,8,9,11-hexahydropyrido[4′,3′:3,4]pyrazolo[5,1-d][1,2,5]oxadiazepine-10(2H)-carboxamide] | 1 to 100 nM
12 | CN1O[C@@H](C[S@@+](C)[O-])Cn2nc3c(c2C1=O)CN(C(=O)Nc1ccc(F)c(Cl)c1)CC3 (stereo in doubt) [Compound 049_E3, (R*)—N-(3-chloro-4-fluorophenyl)-2-methyl-4-(((R*)-methylsulfinyl)methyl)-1-oxo-1,4,5,8,9,11-hexahydropyrido[4′,3′:3,4]pyrazolo[5,1-d][1,2,5]oxadiazepine-10(2H)-carboxamide] | 1 to 100 nM
13 | CN1O[C@@H](C[S@+](C)[O-])Cn2nc3c(c2C1=O)CN(C(=O)Nc1ccc(F)c(Cl)c1)CC3 (stereo in doubt) [Compound 049_E4, (R*)—N-(3-chloro-4-fluorophenyl)-2-methyl-4-(((S*)-methylsulfinyl)methyl)-1-oxo-1,4,5,8,9,11-hexahydropyrido[4′,3′:3,4]pyrazolo[5,1-d][1,2,5]oxadiazepine-10(2H)-carboxamide] | 100 to 500 nM
14 | C[C@H]1Cc2nn3c(c2CN1C(=O)Nc1ccc(F)c(Cl)c1)C(=O)N(C)O[C@H](CO)C3 (stereo in doubt) [Compound 069_E1, (4S*,9S*)—N-(3-chloro-4-fluorophenyl)-4-(hydroxymethyl)-2,9-dimethyl-1-oxo-1,4,5,8,9,11-hexahydropyrido[4′,3′:3,4]pyrazolo[5,1-d][1,2,5]oxadiazepine-10(2H)-carboxamide] | 1 to 100 nM
15 | C[C@H]1Cc2nn3c(c2CN1C(=O)Nc1ccc(F)c(Cl)c1)C(=O)N(C)O[C@@H](CO)C3 (stereo in doubt) [Compound 069_E2, (4R*,9S*)—N-(3-chloro-4-fluorophenyl)-4-(hydroxymethyl)-2,9-dimethyl-1-oxo-1,4,5,8,9,11-hexahydropyrido[4′,3′:3,4]pyrazolo[5,1-d][1,2,5]oxadiazepine-10(2H)-carboxamide] | 1 to 100 nM
16 | C[C@@H]1Cc2nn3c(c2CN1C(=O)Nc1ccc(F)c(Cl)c1)C(=O)N(C)O[C@@H](CO)C3 (stereo in doubt) [Compound 069_E3, (4R*,9R*)—N-(3-chloro-4-fluorophenyl)-4-(hydroxymethyl)-2,9-dimethyl-1-oxo-1,4,5,8,9,11-hexahydropyrido[4′,3′:3,4]pyrazolo[5,1-d][1,2,5]oxadiazepine-10(2H)-carboxamide] | 100 to 500 nM
17 | C[C@@H]1Cc2nn3c(c2CN1C(=O)Nc1ccc(F)c(Cl)c1)C(=O)N(C)O[C@H](CO)C3 (stereo in doubt) [Compound 069_E4, (4S*,9R*)—N-(3-chloro-4-fluorophenyl)-4-(hydroxymethyl)-2,9-dimethyl-1-oxo-1,4,5,8,9,11-hexahydropyrido[4′,3′:3,4]pyrazolo[5,1-d][1,2,5]oxadiazepine-10(2H)-carboxamide] | 1 to 100 nM
18 | C[C@@H]1Cc2nn3c(c2CN1C(=O)Nc1ccc(F)c(C(F)(F)F)c1)C(=O)N(C)OC(CO)C3 (stereo in doubt) [Compound 082_E1, (4S*,9R)—N-(4-fluoro-3-(trifluoromethyl)phenyl)-4-(hydroxymethyl)-2,9-dimethyl-1-oxo-1,4,5,8,9,11-hexahydropyrido[4′,3′:3,4]pyrazolo[5,1-d][1,2,5]oxadiazepine-10(2H)-carboxamide] | 1 to 100 nM
19 | C[C@@H]1Cc2nn3c(c2CN1C(=O)Nc1ccc(F)c(C#N)c1)C(=O)N(C)OC(CO)C3 (stereo in doubt) [Compound 084_E1, (4S*,9R)—N-(3-cyano-4-fluorophenyl)-4-(hydroxymethyl)-2,9-dimethyl-1-oxo-1,4,5,8,9,11-hexahydropyrido[4′,3′:3,4]pyrazolo [5,1-d][1,2,5]oxadiazepine-10(2H)-carboxamide] | 1 to 100 nM
20 | C[C@@H]1Cc2nn3c(c2CN1C(=O)Nc1ccc(F)c(C(F)(F)F)c1)C(=O)N(C)OC(CF)C3 (stereo in doubt) [Compound 085_E1, (4S*,9R)—N-(4-fluoro-3-(trifluoromethyl)phenyl)-4-(fluoromethyl)-2,9-dimethyl-1-oxo-1,4,5,8,9,11-hexahydropyrido[4′,3′:3,4]pyrazolo[5,1-d][1,2,5]oxadiazepine-10(2H)-carboxamide] | 1 to 100 nM
21 | Cc1cc(NC(=O)N2Cc3c(nn4c3C(=O)N(C)OC(CF)C4)C[C@H]2C)ccc1F (stereo in doubt) [Compound 086_E1, (4S*,9R)—N-(4-fluoro-3-methylphenyl)-4-(fluoromethyl)-2,9-dimethyl-1-oxo-1,4,5,8,9,11-hexahydropyrido[4′,3′:3,4]pyrazolo[5,1-d][1,2,5]oxadiazepine-10(2H)-carboxamide] | 1 to 100 nM
22 | C[C@@H]1Cc2nn3c(c2CN1C(=O)Nc1ccc(F)c(C#N)c1)C(=O)N(C)OC(CF)C3 (stereo in doubt) [Compound 087_E1, (4S*,9R)—N-(3-cyano-4-fluorophenyl)-4-(fluoromethyl)-2,9-dimethyl-1-oxo-1,4,5,8,9,11-hexahydropyrido[4′,3′:3,4]pyrazolo[5,1-d][1,2,5]oxadiazepine-10(2H)-carboxamide] | 1 to 100 nM

Source: patent publication US10987359B2, “Oxadiazepinone derivatives and methods of treating hepatitis B infections” (priority 2016, dated 2021)
